How the values were obtained:
Assay type in all cases: binding
siderocalin (Scn) [1] = biological target: T1, siderocalin (Scn) (Homo sapiens, UniProt P80188); experiment: tryptophan fluorescence quenching titration of metal-free ligand, pH […]
T1 construct: gene LCN2

siderocalin (Scn) [2] = biological target: T1, siderocalin (Scn); experiment: tryptophan fluorescence quenching titration, pH […]; crystal structure at […] Å
siderocalin (Scn) [3] = biological target: T1, siderocalin (Scn); experiment: as above; remark: listed apart in the source

T1 sequence (P80188 21-198): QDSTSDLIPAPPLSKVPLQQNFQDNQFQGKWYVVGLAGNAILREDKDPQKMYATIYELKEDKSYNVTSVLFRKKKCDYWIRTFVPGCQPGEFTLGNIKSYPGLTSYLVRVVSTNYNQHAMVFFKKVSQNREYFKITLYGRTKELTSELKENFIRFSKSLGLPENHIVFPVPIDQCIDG

**Q.** How did the Kd (siderocalin (Scn) [1]) turn out when `O=C(NCCCN(CCCCN(CCCNC(=O)c1cccc(=O)n1O)C(=O)c1cccc(=O)n1O)C(=O)c1cccc(=O)n1O)c1cccc(=O)n1O` [HOPO, 3,4,3-LI(1,2-HOPO)] was run?
**A.** 43 nM

**Q.** `O=C(NCCCN(CCCCN(CCCNC(=O)c1cccc(=O)n1O)C(=O)c1cccc(=O)n1[O-])C(=O)c1cccc(=O)n1[O-])c1cccc(=O)n1[O-].[Ac+3]` [[Ac^III(HOPO)]^1–] was tested. Which Kd (siderocalin (Scn) [2]) did it give?
**A.** 6 nM

**Q.** How did the Kd (siderocalin (Scn) [3]) turn out when `O=C(NCCCN(CCCCN(CCCNC(=O)c1cccc(=O)n1O)C(=O)c1cccc(=O)n1[O-])C(=O)c1cccc(=O)n1[O-])c1cccc(=O)n1[O-].[La+3]` [[La^III(HOPO)]^1–] was run?
**A.** 20 nM

— paper PMC11251196, “Actinium chelation and crystallization in a macromolecular scaffold” (Nature Communications, 2024)
